Active and inactive are the calls of the source. The rule behind the calls is not given here.

Results on seven compounds are retold here after ChEMBL document CHEMBL3352287, “Cytotoxic resin glycosides from Ipomoea aquatica and their effects on intracellular Ca2+ concentrations” (J Nat Prod, 2014).

The subject of assay [1] is SMMC-7721. As to the kind of experiment: Cytotoxicity against human SMMC7721 cells after 48 hrs by MTT assay. In kind it is functional, cell-based. Particulars: SMMC-7721, 48 h.
Assay [2] has as its system HepG2. The assay can be described thus: Cell cycle arrest in human HepG2 cells assessed as increase in G0/G1 phase cells after 48 hrs using propidium iodide by flow cytometry. The assay is classed as functional, cell-based. In general terms: A flow cytometer gives signals particle by particle.
Assay [3] has as its system HepG2. As to the kind of experiment: Increase in intracellular Ca2+ level in human HepG2 cells assessed as increase in fluorescence intensity at 30 uM after 6 hrs by Fluo-3 AM -based fluorescence assay relative to control. The assay is classed as functional.
Assay [4] deals with HepG2. As to the kind of experiment: Cell cycle arrest in human HepG2 cells assessed as increase in subG1 phase cells at 8 uM after 48 hrs using propidium iodide by flow cytometry. The assay is classed as functional, cell-based.
Assay [5] can be described thus: Cytotoxicity against human MCF7/ADR cells after 48 hrs by MTT assay. Particulars: NCI/ADR-RES. In kind it is functional, cell-based.
Assay [6] can be described thus: Cytotoxicity against human MG63 cells after 48 hrs by MTT assay. In kind it is functional, cell-based. The settings on record: MG-63, 48 h. On the technique in general: Tetrazolium assays rely on reduction of a dye to a coloured formazan, in cell work by metabolically active cells.
Assay [7] has as its system U2OS. The assay can be described thus: Cytotoxicity against human U2OS cells after 48 hrs by MTT assay. The assay is classed as functional, cell-based.
Assay [8] relates to HepG2. As to the kind of experiment: Cytotoxicity against human HepG2 cells after 48 hrs by MTT assay. In kind it is functional, cell-based. The settings on record: HepG2, 48 h.
Assay [9] has as its system MCF7. As to the kind of experiment: Cytotoxicity against human MCF7 cells after 48 hrs by MTT assay. The settings on record: MCF7, 48 h. In kind it is functional, cell-based.
Assay [10] has as its system MCF7. As to the kind of experiment: Cytotoxicity against human MCF7 cells at 10 uM after 48 hrs by MTT assay. The assay is classed as functional, cell-based.
Another assay relates to MG-63. The assay can be described thus: Cytotoxicity against human MG63 cells at 10 uM after 48 hrs by MTT assay. In kind it is functional, cell-based.
In assay [11] the test system is U2OS. The assay can be described thus: Cytotoxicity against human U2OS cells at 10 uM after 48 hrs by MTT assay. In kind it is functional, cell-based.
The subject of the next assay is NCI/ADR-RES. As to the kind of experiment: Cytotoxicity against human MCF7/ADR cells at 10 uM after 48 hrs by MTT assay. The assay is classed as functional, cell-based.
Assay [12] concerns HepG2. The assay can be described thus: Cytotoxicity against human HepG2 cells at 10 uM after 48 hrs by MTT assay. In kind it is functional, cell-based.
Assay [13] deals with SMMC-7721. The assay can be described thus: Cytotoxicity against human SMMC7721 cells at 10 uM after 48 hrs by MTT assay. The assay is classed as functional, cell-based.

With `CCCCCCCC(=O)O[C@@H]1[C@@H](O)[C@@H](O)[C@H](O[C@@H]2[C@@H](O[C@@H]3O[C@@H](C)[C@H](O)[C@@H](O)[C@H]3O)[C@@H](OC(=O)CCCCC)[C@H](O[C@@H]3[C@H]4OC(=O)CCCCCCCCC[C@H](CCCCC)O[C@@H]5O[C@H](C)[C@H](O)[C@H](O)[C@H]5O[C@H](O[C@H]3C)[C@@H]4O)O[C@H]2C)O[C@H]1C`, the IC50 was 6.3 µM in the assay with SMMC-7721 [1]; over 10 µM in assay [5]; 5.3 µM in [6] (read-out: IC50); 4.5 µM in the assay with U2OS [7]; 2.4 µM in the assay on HepG2 [8]; 4.2 µM in the assay on MCF7 [9]. For the same compound, the Activity result in the assay on HepG2 [2] was “Dose-dependent effect”. The outcome in the assay on HepG2 [3] and with HepG2 [4] was Active.

Regarding `CCCCCCCC(=O)O[C@@H]1[C@@H](O)[C@@H](O)[C@H](O[C@@H]2[C@@H](O[C@@H]3O[C@H](CO)[C@@H](O)[C@H](O)[C@H]3O)[C@@H](OC(=O)CCCCCCC)[C@H](O[C@@H]3[C@H]4OC(=O)CCCCCCCCC[C@H](CCCCC)O[C@@H]5O[C@H](C)[C@H](O)[C@H](O)[C@H]5O[C@H](O[C@H]3C)[C@@H]4O)O[C@H]2C)O[C@H]1C`, the IC50 with SMMC-7721 [1] is over 10 µM; in assay [5], over 10 µM; in assay [6] (read-out: IC50), 5.4 µM; with U2OS [7], over 10 µM; with HepG2 [8], 8.5 µM; in the assay with MCF7 [9] it was 7.4 µM. For the same compound, in the assay with HepG2 [3], the Activity is over 200%.

For `CCCCCCCCCC(=O)O[C@H]1[C@H](O[C@@H]2[C@H]3OC(=O)CCCCCCCCC[C@H](CCCCC)O[C@@H]4O[C@H](C)[C@H](O)[C@H](O)[C@H]4O[C@H](O[C@H]2C)[C@@H]3O)O[C@@H](C)[C@H](O[C@@H]2O[C@@H](C)[C@H](OC(=O)CCCCCCC)[C@@H](O)[C@H]2O)[C@H]1O[C@@H]1O[C@@H](C)[C@H](O)[C@@H](O)[C@H]1O`, the IC50 was over 10 µM in the assay on SMMC-7721 [1]; over 10 µM in assay [5]; 6 µM in [6] (read-out: IC50); over 10 µM with U2OS [7]; 4.9 µM with HepG2 [8]; 9.8 µM with MCF7 [9]. In addition, the result in the assay on HepG2 [3] was Active.

As for `CCCCCCCC(=O)O[C@@H]1[C@@H](O)[C@@H](O)[C@H](O[C@@H]2[C@@H](O[C@@H]3O[C@@H](C)[C@H](O)[C@@H](O)[C@H]3O)[C@@H](OC(=O)CCCCCCC)[C@H](O[C@@H]3[C@H]4OC(=O)CCCCCCCCC[C@H](CCCCC)O[C@@H]5O[C@H](C)[C@H](O)[C@H](O)[C@H]5O[C@H](O[C@H]3C)[C@@H]4O)O[C@H]2C)O[C@H]1C`, the IC50 in the assay on SMMC-7721 [1] is 9 µM; in assay [5], over 10 µM; in assay [6] (read-out: IC50), 3.7 µM; in the assay with U2OS [7] it was 9.6 µM; in the assay on HepG2 [8] it was 5.2 µM; in the assay with MCF7 [9], 5 µM. In addition, in the assay with HepG2 [3], the outcome was Active.

Turning to `COc1cccc2c1C(=O)c1c(O)c3c(c(O)c1C2=O)C[C@@](O)(C(=O)CO)C[C@@H]3O[C@H]1C[C@H](N)[C@H](O)[C@H](C)O1` [DOXORUBICIN], the IC50 came to 1.1 µM in the assay on SMMC-7721 [1]; 0.74 µM in assay [6]; 0.65 µM in the assay with U2OS [7]; 0.36 µM in the assay with HepG2 [8]; 0.46 µM with MCF7 [9].

Consider `CCCCCCCC(=O)O[C@@H]1[C@@H](O)[C@@H](O)[C@H](O[C@@H]2[C@@H](O[C@@H]3O[C@@H](C)[C@H](O)[C@@H](O)[C@H]3O)[C@@H](OC(=O)[C@@H](C)CC)[C@H](O[C@@H]3[C@H]4OC(=O)CCCCCCCCC[C@H](CCCCC)O[C@@H]5O[C@H](C)[C@H](O)[C@H](O)[C@H]5O[C@H](O[C@H]3C)[C@@H]4O)O[C@H]2C)O[C@H]1C`, for which the IC50 in the assay with SMMC-7721 [1] was 9.5 µM; in [5], over 10 µM; in assay [6] (read-out: IC50) it was 7.7 µM; in the assay with U2OS [7] it was 9.4 µM; with HepG2 [8], 3.7 µM; with MCF7 [9], 4.1 µM. Moreover, the outcome with HepG2 [3] was Active.

As to `CCCCCCCC(=O)O[C@@H]1[C@@H](O)[C@H](C)O[C@@H](O[C@@H]2[C@@H](O[C@@H]3O[C@H](CO)[C@@H](O)[C@H](O)[C@H]3O)[C@@H](OC(=O)CCCCCCC)[C@H](O[C@@H]3[C@H]4OC(=O)CCCCCCCCC[C@H](CCCCC)O[C@@H]5O[C@H](C)[C@H](O)[C@H](O)[C@H]5O[C@H](O[C@H]3C)[C@@H]4O)O[C@H]2C)[C@@H]1O`, the outcome in the assay on MCF7 [10], in the assay with MG-63, with U2OS [11], in the assay with NCI/ADR-RES, in the assay on HepG2 [12] and in the assay on SMMC-7721 [13] was inactive.

Broadly, the IC50 is the concentration that inhibits the measured activity by half.
